In general, IC50 refers to the concentration needed to halve the response being measured. The Ki is a dissociation constant, usually derived from enzyme kinetics or from competition with a known ligand. A higher Ki goes with lower affinity.

The subject of the first assay is NMDA-induced neurotoxicity in cultured cortical neurons. Briefly: Antagonism of NMDA-induced neurotoxicity in cultured neurons. In kind it is cell-based, mouse (Swiss-Webster). The conditions noted are these: 500 μM NMDA for 30 minutes; LDH activity after 24 hours. The method, then: Antagonism of NMDA-induced Neurotoxicity in Cultured Neurons
Preparation of cultured cortical neurons
Pregnant, Swiss-Webster mice were obtained from Taconic Farms (Germantown, N.Y.) and sacrificed 16 days post conception. Fetuses were removed and placed in a sterile dish containing Hank's balanced salt solution (HBSS), pH 7.4. Brain cortices were dissected, meninges were removed, the tissue was minced and placed into a solution of HBSS containing 0.25% (w/v) trypsin at 37° C. for 15 minutes. Tissue was then triturated with a sterile pasteur pipet, diluted with minimal essential media (Gibco 330-1430), pH 7.4, supplemented with 10% horse serum, 10% fetal calf serum, 2 mM 1-glutamine, 21 mM d-glucose, 2.2 g/L sodium bicarbonate, 1000 U/ml penicillin, and 1,000 μg/ml streptomycin. Cells were plated onto Falcon primaria 96 well plates at a final density of 50,000 cells/well and incubated at 37° C. in the presence of 5% (v/v) carbon dioxide. After 5 days, plating media was replaced with maintenance media containing minimal essential media (Gibco 330-1430), pH 7.4, supplemented with 10% horse serum, 10% 1-glutamine, 21 mM D-glucose, 2.2 g/l sodium bicarbonate,1,000 U/ml penicillin, 1,000 μg/ml streptomycin, and 10 μM cytosine arabinoside. On days 7 and 10, media was replaced with maintenance media as above lacking the cytosine arabinoside. Experiments were conducted on day 13.
Neuroprotection Assessment
Day 13 cultured cortical neurons were washed twice with minimal essential media, pH 7.4 and then exposed for 30 minutes to 500 μM N-methyl-D-aspartic acid (NMDA) with or without varying concentrations of test agents. […] MK-801 and test agents were prepared in minimal essential media supplemented with 21 mM d-glucose and 2.2 g/L sodium bicarbonate (MEM). After 30 minutes, media was replaced with MEM alone. Exposure of neurons to test agents was limited to the NMDA treatment period. Twenty-four hours after removal of NMDA, an aliquot of media from each well was removed for assessment of cell injury by determining lactate dehydrogenase (LDH) activity by the method of Wroblewski and LaDue Proc. Soc. Exp. Biol. Med. 1955, 90, 210-213. The results are expressed as an IC50 (in nM) value (concentration causing 50% inhibition) for the antagonism of NMDA-induced neurotoxicity.
(§1) Table 4 summarizes the results obtained from the testing of representative compounds of the invention in the [^3 H]TCP radioreceptor assay as well as in the antagonism of NMDA-induced neurotoxicity in cultured neurons.
In the case of `c1ccc2c(c1)C1CC(c3ccoc3)(c3ccoc3)C2c2scc[n+]21` (single isomer, unassigned; (+)) [5(e), (+)-11,11-di(3-furyl)-5,10-ethano-5,10-dihydrothiazolo[3,2-b]isoquinolinium chloride], half-maximal inhibition (IC50) required 20 nM.

The same assay, now with this note: Mus musculus, Cortical neurone, 500 μM NMDA for 30 minutes; LDH activity after 24 hours.
Regarding `c1ccc2c(c1)C1CC(c3ccoc3)(c3ccoc3)C2c2scc[n+]21` (racemic) [4(e), 11,11-di(3-furyl)-5,10-ethano-5,10-dihydrothiazolo[3,2-b]isoquinolinium chloride], the 50% inhibitory concentration (IC50) was found to be 50 nM.
In turn, `Cc1csc2[n+]1C1CC(c3ccoc3)(c3ccoc3)C2c2ccccc21` (stereo not drawn) [15(F), 11,11-di(3-furyl)-5,10-ethano-5,10-dihydro-3-methylthiazolo[3,2-b]isoquinolinium chloride] gave an IC50 of 300 nM.
In the case of `CCOC1(OCC)C2c3c(OC)cccc3C([n+]3ccsc32)C1(C)C` (stereo not drawn) [6(d), 11,11-diethoxy-12,12-dimethyl-9-methoxy-5,10-ethano-5,10-dihydrothiazolo[3,2-b]isoquinolinium chloride], the IC50 is 79 nM.

In another assay the test system is PCP recognition sites (PCP receptor). Briefly: [3H]TCP radioreceptor assay (binding to PCP recognition sites). The conditions noted are these: 10 μM; rat whole brain membranes, approx. 1 nM [3H]TCP. Details: species or system rat (male Sprague-Dawley. How it is done:
[^3 H]TCP Radioreceptor Assay
[^3 H]TCP binding to PCP recognition sites was performed as described by Vignon et al. Brain Research 1983, 280, 194-197. Male Sprague-Dawley rats were sacrificed by decapitation, and whole brains were homogenized in 10 volumes (wt/vol) of cold Tris-HCl buffer (50 mM, pH 7.7) using a Brinkmann Polytron (setting 6, 30 sec). The homogenate was centrifuged at 40,000×g for 10 min at 4° C. The supernatant was decanted, and the homogenization and centrifugation steps were repeated twice as described above. Following this, the pellet was resuspended in Tris-HCl (5 mM, pH 7.7) at a tissue concentration of 0.5-0.75 g/ml, and one ml aliquots were frozen at -70° C. until use. The binding characteristics for PCP recognition sites were not altered by the freezing of membrane suspensions.
On the day of the assay, membrane aliquots were thawed, resuspended in fresh 5 mM Tris-HCl buffer at a tissue concentration of 1 mg/ml, and stored on ice until use. Each assay tube contained 100 μl of [^3 H]TCP at a final concentration of approximately 1 nM, 100 μl of various concentrations of the compounds of interest, 500 μl of the tissue suspension and 300 μl of buffer to a final assay volume of 1 ml and a final protein concentration of 0.5 mg/tube. Non-specific binding was defined by addition of a final concentration of 100 μM PCP to blank tubes. All tubes were incubated at room temperature for 25 min before termination of the reaction by rapid filtration over Whatman GF/B glass fiber filters that had been presoaked in a solution of 0.5% polyethylenimine for at least 1 hr prior to use. Filters were washed with three 4 ml volumes of cold Tris buffer. Following addition of scintillation cocktail, the amount of bound radioactivity was determined by liquid scintillation spectrometry using a Beckman LS 5000TA liquid scintillation counter with an efficiency for tritium of approximately 55%. Inhibition constants (Ki values) were calculated using the EBDA/LIGAND program (McPherson, J. Pharmacol. Meth. 1985, 14, 213-228), purchased from Elsevier/Biosoft, Inc. The results are reported as Ki values (in nM) which are expressed as the mean of at least two separate determinations, or as a percent (%) inhibition of binding at 10 μM.
as §1
Take `COc1ccc(Cn2ccc(C3(c4ccn(Cc5ccc(OC)cc5)n4)CC4c5ccccc5C3c3scc[n+]34)n2)cc1` (stereo not drawn) [18(e), 11,11-di-[(1-p-methoxybenzyl)-pyrazol-3-yl)]-5,10-ethano-5,10-dihydrothiazolo[3,2-b]isoquinolinium perchlorate]: the “[3H]TCP percent inhibition of binding @ 10 μM” value came out at 6%.

Still in this assay, the particulars now being: rat whole brain membranes, approx. 1 nM [3H]TCP; mean of at least two determinations.
Compound `c1ccc2c(c1)C1CC(c3ccoc3)(c3ccoc3)C2c2scc[n+]21` (racemic) [4(e), 11,11-di(3-furyl)-5,10-ethano-5,10-dihydrothiazolo[3,2-b]isoquinolinium chloride] returned a Ki of 2.9 nM.
The compound `Cn1cc[n+]2c1C1c3ccccc3C2CC1(c1ccccc1)c1ccccc1` (stereo not drawn) [3(b), 11,11-diphenyl-5,10-ethano-5,10-dihydro-1-methylimidazo[1,2-b]isoquinolin-4-ium chloride] yielded a Ki of 13 nM.
`Cc1csc2[n+]1C1CC(c3ccoc3)(c3ccoc3)C2c2ccccc21` (stereo not drawn) [15(F), 11,11-di(3-furyl)-5,10-ethano-5,10-dihydro-3-methylthiazolo[3,2-b]isoquinolinium chloride] yielded a Ki of 20 nM.
`c1ccc2c(c1)C1CC(c3ccoc3)(c3ccoc3)C2c2n(Cc3cccc4ccccc34)cc[n+]21` (stereo not drawn) [205(e), 11,11-di(3-furyl)-5,10-ethano-5,10-dihydro-1(1-naphthylmethyl)imidazo[1,2-b]isoquinolin-4-ium chloride] showed a Ki of 329 nM. This Ki lies about 16-fold higher than the previous one.
The compound `CCOC1(OCC)C2c3c(OC)cccc3C([n+]3ccsc32)C1(C)C` (stereo not drawn) [6(d), 11,11-diethoxy-12,12-dimethyl-9-methoxy-5,10-ethano-5,10-dihydrothiazolo[3,2-b]isoquinolinium chloride] returned a Ki of 9.2 nM.
As for `Cn1nc[n+]2c1C1c3ccccc3C2CC1(c1ccccc1)c1ccccc1` (stereo not drawn) [11(g), 11,11-diphenyl-5,10-ethano-5,10-dihydro-1-methyl-1,2,4-triazo[1,2-b]isoquinolin-4-ium chloride], the Ki turned out to be 35 nM.
For the compound `c1ccc(C(c2ccccc2)n2cc[n+]3c2C2c4ccccc4C3CC2(c2ccoc2)c2ccoc2)cc1` (stereo not drawn) [203(d), 11,11-di(3-furyl)-5,10-ethano-5,10-dihydro-1-(1,1-diphenylmethyl)imidazo[1,2-b]isoquinolin-4-ium hexafluorophosphate], affinity was put at a Ki of 306 nM.
Consider `c1ccc2c(c1)C1CC(c3ccoc3)(c3ccoc3)C2c2scc[n+]21` (single isomer, unassigned; (+)) [5(e), (+)-11,11-di(3-furyl)-5,10-ethano-5,10-dihydrothiazolo[3,2-b]isoquinolinium chloride], for which the affinity corresponds to a Ki of 2 nM.
With `c1ccc(Cn2cc[n+]3c2C2c4ccccc4C3CC2(c2ccccc2)c2ccccc2)cc1` (stereo not drawn) [9(b), 11,11-diphenyl-5,10-ethano-5,10-dihydro-1-benzylimidazo[1,2-b]isoquinolin-4-ium chloride], the Ki stood at 89 nM. This Ki is about 44-fold higher than that of the compound before.
Regarding `COc1cccc2c1C1c3scc[n+]3C2CC1(c1ccoc1)c1ccoc1` (stereo not drawn) [207(b), 11,11-di(3-furyl)-9-methoxy-5,10-ethano-5,10-dihydrothiazolo[3,2-b]isoquinolinium chloride], the affinity, expressed as Ki, was 14.1 nM.
`c1ccc(Cn2cc[n+]3c2C2c4ccccc4C3CC2(c2cc[nH]n2)c2cc[nH]n2)cc1` (stereo not drawn) [202(c), 11,11-di(pyrazol-3-yl)-5,10-ethano-5,10-dihydro-1-benzylimidazo-[1,2-b]isoquinolin-4-ium chloride] came in with a Ki of 36.5 nM.
Regarding `c1ccc(C2(c3ccccc3)CC3c4ccccc4C2c2scc[n+]23)cc1` (stereo not drawn) [2(b), 11,11-diphenyl-5,10-ethano-5,10-dihydrothiazolo[1,2-b]isoquinolin-4-ium chloride], affinity was put at a Ki of 4.2 nM.
Regarding `CCOC1(OCC)C2c3ccccc3C([n+]3ccn(Cc4ccccc4)c32)C1(C)C` (stereo not drawn) [8(b), 11,11-diethoxy-12,12-dimethyl-5,10-ethano-5,10-dihydro-1-benzylimidazo[1,2-b]isoquinolin-4-ium chloride], the Ki stood at 10 nM.
In the case of `Cn1nc[n+]2c1C1c3ccccc3C2CC1(c1ccoc1)c1ccoc1` (stereo not drawn) [14(E), 11,11-di(3-furyl)-5,10-ethano-5,10-dihydro-1-methyl-1,2,4-triazolo[1,2-b]isoquinolin-4-ium chloride], the affinity corresponds to a Ki of 14 nM.
The compound `CCCCn1cc[n+]2c1C1c3ccccc3C2CC1(c1ccoc1)c1ccoc1` (stereo not drawn) [201(f), 11,11-di(3-furyl)-5,10-ethano-5,10-dihydro-1-butylimidazo-[1,2-b]isoquinolin-4-ium chloride] gave a Ki of 36.3 nM. This Ki lies about 2.6-fold higher than the previous one.
Compound `c1ccc(-n2cc[n+]3c2C2c4ccccc4C3CC2(c2ccoc2)c2ccoc2)cc1` (stereo not drawn) [199(f), 11,11-di(3-furyl)-5,10-ethano-5,10-dihydro-1-phenylimidazo[1,2-b]isoquinolin-4-ium chloride] returned a Ki of 52.2 nM.
With `c1ccc(Cn2cc[n+]3c2C2c4ccccc4C3CC2(c2ccoc2)c2ccoc2)cc1` (stereo not drawn) [2(F), 11,11-di(3-furyl)-5,10-ethano-5,10-dihydro-1-benzylimidazo[1,2-b]isoquinolin-4-ium chloride], the affinity corresponds to a Ki of 7.7 nM.
`c1ccc(CCCn2cc[n+]3c2C2c4ccccc4C3CC2(c2ccoc2)c2ccoc2)cc1` (stereo not drawn) [200(g), 11,11-di(3-furyl)-5,10-ethano-5,10-dihydro-1-(3-phenylpropyl)imidazo[1,2-b]isoquinolin-4-ium chloride] gave a Ki of 67.8 nM.
The same measure, in the same setting: the figure for `CCOC1(OCC)C2c3ccccc3C([n+]3cnn(C)c32)C1(C)C` (stereo not drawn) [10(b), 11,11-diethoxy-12,12-dimethyl-5,10-ethano-5,10-dihydro-1-methyl-1,2,4-triazolo[1,2-b]isoquinolin-4-ium chloride] is 30 nM.
Compound `COc1ccc(Cn2cc[n+]3c2C2c4ccccc4C3CC2(c2ccoc2)c2ccoc2)cc1` (stereo not drawn) [19(F), 11,11-di(3-furyl)-5,10-ethano-5,10-dihydro-1-(p-methoxybenzyl)imidazo[1,2-b]isoquinolin-4-ium chloride] had a Ki of 30 nM.
Still for that read-out and setting: the figure for `c1ccc2c(c1)C1CC(c3ccoc3)(c3ccoc3)C2c2n(Cc3ccc4ccccc4c3)cc[n+]21` (stereo not drawn) [204(e), 11,11-di(3-furyl)-5,10-ethano-5,10-dihydro-1-(2-naphthyl-methyl)imidazo[1,2-b]isoquinolin-4-ium chloride] is 330 nM; for `O=C1CC(C2(C3=COC(=O)C3)CC3c4ccccc4C2c2scc[n+]23)=CO1.[O-][Cl+3]([O-])([O-])[O-]` (stereo not drawn) [Example 17, 11,11-di-(5-oxo-4,5-dihydro-3-furyl)-5,10-ethano-5,10-dihydrothiazolo[3,2-b]isoquinolinium perchlorate] it is 640 nM.

For the origin of these results see patent publication US5569655A, “Substituted heterocyclylisoquinolinium salts and compositions and method of use thereof” (Sterling Winthrop Inc., priority 1994, dated 1996).
